From patent US20140051722A1, “TOPICAL LFA-1 ANTAGONISTS FOR USE IN LOCALIZED TREATMENT OF IMMUNE RELATED DISORDERS” (SARCODE BIOSCIENCE INC., priority 2008, published 2014)

How the values were obtained:
[1] = test system: Plaque Psoriasis (PASI score); conditions: >90% occupancy of LFA-1; cited from earlier work
IL-5 = assay: SEB-stimulated cytokine release from human PBMC: IL-5; type: cell-based; conditions: SEB 1 ng/ml
IL-3 = assay: SEB-stimulated cytokine release from human PBMC: IL-3; type: cell-based; conditions: SEB 1 ng/ml
IL-6 = assay: SEB-stimulated cytokine release from human PBMC: IL-6; type: cell-based; conditions: SEB 1 ng/ml
IL-1α = assay: SEB-stimulated cytokine release from human PBMC: IL-1α; type: cell-based; conditions: SEB 1 ng/ml
IL-1β = assay: SEB-stimulated cytokine release from human PBMC: IL-1β; type: cell-based; conditions: SEB 1 ng/ml
IL-4 = assay: SEB-stimulated cytokine release from human PBMC: IL-4; type: cell-based; conditions: SEB 1 ng/ml
MCP-1 = assay: SEB-stimulated cytokine release from human PBMC: MCP-1; type: cell-based; conditions: SEB 1 ng/ml
IL-13 = assay: SEB-stimulated cytokine release from human PBMC: IL-13; type: cell-based; conditions: SEB 1 ng/ml
IL-12p40 = assay: SEB-stimulated cytokine release from human PBMC: IL-12p40; type: cell-based; conditions: SEB 1 ng/ml
IL-10 = assay: SEB-stimulated cytokine release from human PBMC: IL-10; type: cell-based; conditions: SEB 1 ng/ml
IP-10 = assay: SEB-stimulated cytokine release from human PBMC: IP-10; type: cell-based; conditions: SEB 1 ng/ml
GM-CSF = assay: SEB-stimulated cytokine release from human PBMC: GM-CSF; type: cell-based; conditions: SEB 1 ng/ml

Compound | clinical improvement in PASI score [1] | EC50 (IL-5) | EC50 (IL-3) | EC50 (IL-6) | EC50 (IL-1α) | EC50 (IL-1β) | EC50 (IL-4) | EC50 (MCP-1) | EC50 (IL-13) | EC50 (IL-12p40) | EC50 (IL-10) | EC50 (IP-10) | EC50 (GM-CSF)
efalizumab: anti-LFA-1 monoclonal antibody, clinical trial in plaque psoriasis | greater than 50% | – | – | – | – | – | – | – | – | – | – | – | –
O=C(NC(Cc1cc(=O)[nH]c2ccccc12)C(=O)O)c1ccc(Cl)cc1 (stereo not shown) [Rebamipide] | – | > 1000 µM | > 1000 µM | > 1000 µM | > 1000 µM | > 1000 µM | > 1000 µM | > 1000 µM | > 1000 µM | > 1000 µM | > 1000 µM | > 1000 µM | > 1000 µM
